The text below walks through data of ChEMBL document CHEMBL5244258, “PROTACs: New method to degrade transcription regulating proteins” (Eur J Med Chem, 2020).

A value given as a limit tells only on which side of the number the result lay.

The target in experiment [1] is T1, Bromodomain-containing protein 2 (Homo sapiens, UniProt P25440). The experiment is described as follows: Induction of BRD2 degradation (unknown origin) relative to control.
Target sequence in this assay (P25440 whole entry, looked up): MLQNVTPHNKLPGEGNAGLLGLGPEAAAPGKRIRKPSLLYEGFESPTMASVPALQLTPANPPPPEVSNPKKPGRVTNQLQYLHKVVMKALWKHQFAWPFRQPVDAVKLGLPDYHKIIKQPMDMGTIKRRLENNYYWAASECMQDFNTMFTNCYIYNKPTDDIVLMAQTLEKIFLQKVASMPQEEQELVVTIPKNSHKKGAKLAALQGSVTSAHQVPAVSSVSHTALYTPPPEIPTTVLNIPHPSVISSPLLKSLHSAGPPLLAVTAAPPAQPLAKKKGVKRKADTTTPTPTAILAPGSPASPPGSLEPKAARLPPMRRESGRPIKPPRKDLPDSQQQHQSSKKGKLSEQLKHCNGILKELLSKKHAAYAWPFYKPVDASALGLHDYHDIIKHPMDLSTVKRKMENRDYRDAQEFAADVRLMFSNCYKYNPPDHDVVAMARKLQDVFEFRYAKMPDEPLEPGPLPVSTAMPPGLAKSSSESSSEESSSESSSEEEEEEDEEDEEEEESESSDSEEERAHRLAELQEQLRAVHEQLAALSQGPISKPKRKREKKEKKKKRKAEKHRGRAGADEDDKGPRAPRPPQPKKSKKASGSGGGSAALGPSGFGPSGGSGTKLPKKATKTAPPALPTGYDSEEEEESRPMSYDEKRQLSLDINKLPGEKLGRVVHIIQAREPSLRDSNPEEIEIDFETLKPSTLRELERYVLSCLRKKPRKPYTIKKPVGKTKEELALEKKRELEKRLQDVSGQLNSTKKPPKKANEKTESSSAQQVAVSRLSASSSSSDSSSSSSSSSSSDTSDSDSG
The target in experiment [2] is T2, von Hippel-Lindau disease tumor suppressor/Bromodomain-containing protein 4 (Homo sapiens, UniProt O60885+P40337). The experiment is described as follows: Protac activity at BRD4/VHL (unknown origin) assessed as maximum efficacy relative to control.
T2 sequence (P40337 whole entry, looked up, other chains not shown): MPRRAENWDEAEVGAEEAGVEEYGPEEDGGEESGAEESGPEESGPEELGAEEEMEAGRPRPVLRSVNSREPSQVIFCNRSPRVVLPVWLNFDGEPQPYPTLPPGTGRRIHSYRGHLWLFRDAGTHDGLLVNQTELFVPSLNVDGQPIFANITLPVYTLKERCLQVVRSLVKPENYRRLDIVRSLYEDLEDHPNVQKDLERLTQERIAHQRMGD
In experiment [3] the target is T1, Bromodomain-containing protein 2. In words: Induction of BRD2 degradation (unknown origin).
Target sequence in this assay (P25440 whole entry): as the sequence (P25440 whole entry, looked up) above
Experiment [4] deals with T2, von Hippel-Lindau disease tumor suppressor/Bromodomain-containing protein 4. In words: Protac activity at VHL/BRD4 in human HeLa cells assessed as BRD4 degradation by Western blot analysis relative to control. It is filed as cell-based.
For experiment [5] the target is unchanged. The experiment is described as follows: Protac activity at VHL/BRD4 in human HeLa cells assessed as BRD4 degradation at 1 uM by Western blot analysis relative to control. It is filed as cell-based.
Experiment [6] addresses Bromodomain-containing protein 4 (Homo sapiens) (UniProt O60885). The experiment is described as follows: Induction of BRD4 degradation in human HeLa cells assessed as maximum efficacy at 1 uM relative to control. The format is cell-based.
Experiment [7] concerns the target T2, von Hippel-Lindau disease tumor suppressor/Bromodomain-containing protein 4. In words: Protac activity at BRD4/VHL (unknown origin).
In experiment [8] the target is T3, von Hippel-Lindau disease tumor suppressor/SWI/SNF-related matrix-associated actin-dependent regulator of chromatin subfamily A member 2 (Homo sapiens, UniProt P51531+P40337). In words: PROTAC activity at SMARCA2/VHL in human MV4-11 cells assessed as degradation of SMARCA2 measured for 24 hrs by Western blot analysis relative to control. It is filed as cell-based.
Target sequence in this assay (P40337 whole entry, looked up): as the sequence (P40337 whole entry, looked up, other chains not shown) above
Target sequence in this assay (P51531 whole entry, looked up): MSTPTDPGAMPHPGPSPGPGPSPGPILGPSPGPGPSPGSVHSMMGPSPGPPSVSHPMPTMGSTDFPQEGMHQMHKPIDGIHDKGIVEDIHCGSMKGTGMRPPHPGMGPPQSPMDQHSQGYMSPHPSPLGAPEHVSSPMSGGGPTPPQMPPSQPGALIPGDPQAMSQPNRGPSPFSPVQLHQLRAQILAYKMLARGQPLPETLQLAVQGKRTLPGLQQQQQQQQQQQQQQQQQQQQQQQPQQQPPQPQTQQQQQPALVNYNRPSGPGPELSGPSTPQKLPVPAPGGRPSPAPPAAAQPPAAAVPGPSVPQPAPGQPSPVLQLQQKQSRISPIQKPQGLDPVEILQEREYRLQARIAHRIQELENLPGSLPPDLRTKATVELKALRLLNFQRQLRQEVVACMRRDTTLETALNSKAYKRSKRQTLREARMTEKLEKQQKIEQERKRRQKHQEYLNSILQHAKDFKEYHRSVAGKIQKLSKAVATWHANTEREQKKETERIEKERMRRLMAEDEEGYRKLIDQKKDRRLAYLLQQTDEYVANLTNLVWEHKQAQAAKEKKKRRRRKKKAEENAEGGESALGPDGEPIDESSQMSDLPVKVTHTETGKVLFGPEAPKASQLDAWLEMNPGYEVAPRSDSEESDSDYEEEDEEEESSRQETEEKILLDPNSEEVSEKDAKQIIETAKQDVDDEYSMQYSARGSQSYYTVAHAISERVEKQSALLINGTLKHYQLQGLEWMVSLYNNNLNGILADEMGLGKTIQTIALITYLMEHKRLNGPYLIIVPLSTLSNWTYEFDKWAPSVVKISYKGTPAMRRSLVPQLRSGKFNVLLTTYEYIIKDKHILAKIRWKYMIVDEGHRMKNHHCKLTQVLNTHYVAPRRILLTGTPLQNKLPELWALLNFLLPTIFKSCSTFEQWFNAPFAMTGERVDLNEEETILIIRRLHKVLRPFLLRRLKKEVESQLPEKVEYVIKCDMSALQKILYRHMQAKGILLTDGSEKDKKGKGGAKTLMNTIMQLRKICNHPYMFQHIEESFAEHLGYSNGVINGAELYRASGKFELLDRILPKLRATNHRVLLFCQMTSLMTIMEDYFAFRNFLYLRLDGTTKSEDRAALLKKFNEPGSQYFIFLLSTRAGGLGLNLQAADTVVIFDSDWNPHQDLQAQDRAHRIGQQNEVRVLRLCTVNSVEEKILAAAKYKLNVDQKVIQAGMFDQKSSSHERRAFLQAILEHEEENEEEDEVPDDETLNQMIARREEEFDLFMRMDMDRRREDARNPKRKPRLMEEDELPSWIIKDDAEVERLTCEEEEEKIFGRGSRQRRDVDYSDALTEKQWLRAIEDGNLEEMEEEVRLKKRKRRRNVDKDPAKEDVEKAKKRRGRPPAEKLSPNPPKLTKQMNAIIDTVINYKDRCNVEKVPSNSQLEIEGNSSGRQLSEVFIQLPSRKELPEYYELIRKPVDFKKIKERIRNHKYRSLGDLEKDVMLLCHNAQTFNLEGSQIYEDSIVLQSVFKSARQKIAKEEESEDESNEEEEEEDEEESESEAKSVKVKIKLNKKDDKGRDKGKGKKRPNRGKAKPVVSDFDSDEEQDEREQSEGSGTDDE

Experiment [9] deals with T3, von Hippel-Lindau disease tumor suppressor/SWI/SNF-related matrix-associated actin-dependent regulator of chromatin subfamily A member 2. In words: PROTAC activity at SMARCA2/VHL in human MV4-11 cells assessed as degradation of SMARCA2 by Western blot analysis. The format is cell-based.
Target sequence in this assay (P51531 whole entry): as the sequence (P51531 whole entry, looked up) above
Target sequence in this assay (P40337 whole entry): as the sequence (P40337 whole entry, looked up, other chains not shown) above
In experiment [10] the target is von Hippel-Lindau disease tumor suppressor/SWI/SNF-related matrix-associated actin-dependent regulator of chromatin subfamily A member 4 (Homo sapiens, UniProt P51532+P40337). In words: PROTAC activity at SMARCA4/VHL in human MV4-11 cells assessed as degradation of SMARCA4 measured for 24 hrs by Western blot analysis. It is filed as cell-based.
A further experiment deals with MV4-11. In words: Antiproliferative activity against human MV4-11 cells assessed as growth inhibition. It is filed as functional, cell-based.
Experiment [11] deals with T3, von Hippel-Lindau disease tumor suppressor/SWI/SNF-related matrix-associated actin-dependent regulator of chromatin subfamily A member 2. In words: PROTAC activity at SMARCA2/VHL in human MV4-11 cells assessed as degradation of SMARCA2 measured for 24 hrs by Western blot analysis. The format is cell-based.
Target sequence in this assay (P51531 whole entry): as the sequence (P51531 whole entry, looked up) above
Target sequence in this assay (P40337 whole entry): as the sequence (P40337 whole entry, looked up, other chains not shown) above
For the next experiment, the target named is T4, Androgen receptor (Homo sapiens, UniProt P10275).
T4 sequence (P10275 whole entry): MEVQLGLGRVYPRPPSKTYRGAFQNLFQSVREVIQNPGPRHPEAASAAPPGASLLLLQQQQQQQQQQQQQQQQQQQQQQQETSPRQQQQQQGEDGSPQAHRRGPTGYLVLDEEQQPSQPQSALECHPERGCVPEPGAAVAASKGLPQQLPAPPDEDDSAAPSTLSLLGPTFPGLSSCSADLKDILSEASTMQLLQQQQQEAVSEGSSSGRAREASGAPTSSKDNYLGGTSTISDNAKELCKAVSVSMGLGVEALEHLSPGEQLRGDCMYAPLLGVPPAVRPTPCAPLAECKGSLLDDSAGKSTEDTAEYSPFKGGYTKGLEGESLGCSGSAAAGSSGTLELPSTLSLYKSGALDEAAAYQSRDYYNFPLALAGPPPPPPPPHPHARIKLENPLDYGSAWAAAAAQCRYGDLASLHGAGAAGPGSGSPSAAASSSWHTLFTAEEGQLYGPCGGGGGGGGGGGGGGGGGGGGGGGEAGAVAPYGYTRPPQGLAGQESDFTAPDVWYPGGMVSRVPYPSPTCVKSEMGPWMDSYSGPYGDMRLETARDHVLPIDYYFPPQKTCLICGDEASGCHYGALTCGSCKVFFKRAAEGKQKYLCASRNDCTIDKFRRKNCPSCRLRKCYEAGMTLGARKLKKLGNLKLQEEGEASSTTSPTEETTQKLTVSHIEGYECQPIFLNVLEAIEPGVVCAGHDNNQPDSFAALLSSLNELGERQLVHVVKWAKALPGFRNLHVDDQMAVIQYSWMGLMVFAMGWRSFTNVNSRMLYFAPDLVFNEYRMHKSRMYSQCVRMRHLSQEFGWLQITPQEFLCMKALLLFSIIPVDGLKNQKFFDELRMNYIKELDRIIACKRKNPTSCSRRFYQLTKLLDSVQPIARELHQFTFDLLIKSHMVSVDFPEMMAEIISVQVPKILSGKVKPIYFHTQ
The experiment is described as follows: Induction of AR degradation in human HeLa cells. The format is cell-based.

A further experiment deals with HCT-116. In words: Antiproliferative activity against human HCT-116 cells assessed as reduction in cell viability measured for 48 hrs by MTT assay. The format is functional.
For experiment [12], the target named is T5, von Hippel-Lindau disease tumor suppressor/Estrogen receptor (Homo sapiens, UniProt P03372+P40337). In words: Protac activity at ER/VHL (unknown origin) degradation in human MCF7 cells assessed as maximum efficacy by immunoblotting analysis relative to control. It is filed as cell-based.
Target sequence in this assay (P40337 whole entry, looked up, one chain of several): as the sequence (P40337 whole entry, looked up, other chains not shown) above
Experiment [13] addresses T5, von Hippel-Lindau disease tumor suppressor/Estrogen receptor. The experiment is described as follows: Protac activity at ER/VHL (unknown origin) degradation in human MCF7 cells by immunoblotting analysis. It is filed as cell-based.
Target sequence in this assay (P40337 whole entry, one chain of several): as the sequence (P40337 whole entry, looked up, other chains not shown) above
Experiment [14] deals with von Hippel-Lindau disease tumor suppressor/Steroid hormone receptor ERR1 (Homo sapiens) (UniProt P11474+P40337). In words: Protac activity at VHL/ERRalpha in human MCF7 cells assessed as maximum efficacy relative to control. It is filed as cell-based.
von Hippel-Lindau disease tumor suppressor/Steroid hormone receptor ERR1 (Homo sapiens), sequence (P11474 whole entry, looked up): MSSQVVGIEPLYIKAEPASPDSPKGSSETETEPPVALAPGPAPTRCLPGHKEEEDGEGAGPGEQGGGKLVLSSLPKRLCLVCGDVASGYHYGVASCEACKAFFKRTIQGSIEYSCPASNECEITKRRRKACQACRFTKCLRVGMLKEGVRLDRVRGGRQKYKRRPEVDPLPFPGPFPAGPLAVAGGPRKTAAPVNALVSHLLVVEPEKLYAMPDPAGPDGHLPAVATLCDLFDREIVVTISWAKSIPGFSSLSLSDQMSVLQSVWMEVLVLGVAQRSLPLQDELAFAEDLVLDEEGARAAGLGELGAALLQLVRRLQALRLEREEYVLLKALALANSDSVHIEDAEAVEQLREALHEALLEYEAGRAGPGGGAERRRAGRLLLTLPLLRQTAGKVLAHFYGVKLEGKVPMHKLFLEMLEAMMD
von Hippel-Lindau disease tumor suppressor/Steroid hormone receptor ERR1 (Homo sapiens), sequence (P40337 whole entry, looked up): as the sequence (P40337 whole entry, looked up, other chains not shown) above
In experiment [15] the target is T6, Androgen receptor (Homo sapiens) (UniProt P10275).
T6 sequence (whole entry): T4 sequence (P10275 whole entry)
In words: Induction of AR degradation in human HeLa cells assessed as maximum efficacy at 100 nM relative to control. The format is cell-based.

For another experiment, the target named is T7, Estrogen receptor (Homo sapiens, UniProt P03372).
T7 sequence (P03372 whole entry): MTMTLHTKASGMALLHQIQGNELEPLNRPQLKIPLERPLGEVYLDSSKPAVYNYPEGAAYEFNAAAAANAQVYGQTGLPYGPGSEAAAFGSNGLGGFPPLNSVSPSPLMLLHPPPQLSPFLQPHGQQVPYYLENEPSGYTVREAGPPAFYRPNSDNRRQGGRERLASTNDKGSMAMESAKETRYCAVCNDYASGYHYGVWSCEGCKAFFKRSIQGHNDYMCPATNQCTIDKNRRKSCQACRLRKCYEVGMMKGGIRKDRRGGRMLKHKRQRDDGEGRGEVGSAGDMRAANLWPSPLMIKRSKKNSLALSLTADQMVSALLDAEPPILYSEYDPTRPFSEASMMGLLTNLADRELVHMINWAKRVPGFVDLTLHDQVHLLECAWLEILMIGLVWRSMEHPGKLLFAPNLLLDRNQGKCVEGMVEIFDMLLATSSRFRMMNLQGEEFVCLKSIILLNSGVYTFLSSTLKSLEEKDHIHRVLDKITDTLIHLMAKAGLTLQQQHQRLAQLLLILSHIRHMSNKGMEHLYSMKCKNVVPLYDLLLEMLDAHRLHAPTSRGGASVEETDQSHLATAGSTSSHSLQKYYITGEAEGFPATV
The experiment is described as follows: Induction of estrogen receptor degradation in human MCF7. It is filed as cell-based.

Experiment [16] addresses T8, Estrogen receptor (Homo sapiens) (UniProt P03372).
T8 sequence (whole entry): T7 sequence (P03372 whole entry)
The experiment is described as follows: Induction of estrogen receptor degradation in human MCF7 cells assessed as maximum efficacy relative to control. It is filed as cell-based.

The target of experiment [17] is T6, Androgen receptor (Homo sapiens). The experiment is described as follows: Induction of AR degradation in human HeLa cells assessed as maximum efficacy at 3 nM relative to control. It is filed as cell-based.

With `Cc1ncsc1-c1ccc([C@H](C)NC(=O)[C@@H]2C[C@@H](O)CN2C(=O)[C@@H](NC(=O)COCCCOCCNC(=O)C[C@@H]2N=C(c3ccc(Cl)cc3)c3c(sc(C)c3C)-n3c(C)nnc32)C(C)(C)C)cc1`, the Emax in [1] is over 90%; in experiment [2], over 50%. Moreover, in experiment [3], the DC50 is under 1 nM.

For the compound `Cc1ncsc1-c1ccc(CNC(=O)[C@@H]2C[C@@H](O)CN2C(=O)[C@@H](NC(=O)COCCOCCOCCNC(=O)C[C@@H]2N=C(c3ccc(Cl)cc3)c3c(sc(C)c3C)-n3c(C)nnc32)C(C)(C)C)cc1`, the maximum response (Emax) in experiment [4], in experiment [2] and in experiment [6] was over 90% throughout. In addition, in experiment [5], the Activity stood at 90%.

Turning to `CC(=O)N[C@H](C(=O)N1C[C@@H](O)C[C@H]1C(=O)NCc1ccc(-c2scnc2C)cc1)C(C)(C)SCCCCCNC(=O)C[C@@H]1N=C(c2ccc(Cl)cc2)c2c(sc(C)c2C)-n2c(C)nnc21`, in experiment [2], the maximal response (Emax) was over 90%. Further, the DC50 in experiment [7] came out at 10 nM.

Regarding `Cc1ncsc1-c1ccc(CNC(=O)[C@@H]2C[C@@H](O)CN2C(=O)[C@@H](NC(=O)C2(F)CC2)C(C)(C)C)c(OCCOc2ccc(CN3CCN(c4cc(-c5ccccc5O)nnc4N)CC3)cc2)c1`, the Emax in experiment [8] was determined as 100%. The DC50 in experiment [9] came out at 6 nM; in [10], 11 nM; in experiment [11], 6 nM. The IC50 in the experiment with MV4-11 came to 28 nM.

The compound `COc1ccc(C2=N[C@H](c3ccc(Cl)cc3)[C@H](c3ccc(Cl)cc3)N2C(=O)N2CCN(CC(=O)NCCOCCOCCOCC(=O)Nc3ccc(OC[C@](C)(O)C(=O)Nc4ccc([N+](=O)[O-])c(C(F)(F)F)c4)cc3)C(=O)C2)c(OC(C)C)c1` registered a DC50 at Androgen receptor of 10000 nM.

For the compound `COc1cc(C(=O)O)ccc1NC(=O)[C@@H]1N[C@@H](CC(C)(C)C)[C@](C#N)(c2ccc(Cl)cc2F)[C@H]1c1cccc(Cl)c1F` [IDASANUTLIN], in the experiment with HCT-116, the Activity was found to be 64%.

In the case of `COc1cc(/C=C2\SC(=O)N(CCOCCC(=O)N[C@H](C(=O)N3C[C@H](O)C[C@H]3C(=O)NCc3ccc(-c4scnc4C)cc3)C(C)(C)C)C2=O)ccc1Oc1ccc(C#N)cc1C(F)(F)F`, the figures for the Emax in experiment [12] and in experiment [14] were 86% and over 86%, respectively. Also, in experiment [13], the DC50 was found to be 100 nM.

Consider `CC/C(=C(\c1ccc(O)cc1)c1ccc(OCCN(C)C(=O)COCCOCCOCCOc2ccc(O[C@H]3C[C@@H](C(=O)N[C@@H]4CCCc5ccccc54)N(C(=O)[C@@H](NC(=O)[C@H](C)NC)C4CCCCC4)C3)cc2)cc1)c1ccccc1`, for which the values for the Emax in [15] and in experiment [16] were over 70% and over 80%, respectively. The compound also gave a DC50 on Estrogen receptor of 1000 nM.

As for `CC/C(=C(\c1ccc(O)cc1)c1ccc(OCCN(C)C(=O)COCCOCCOCCOc2cccc(C(=O)c3csc([C@@H]4CCCN4C(=O)[C@@H](NC(=O)[C@H](C)NC)C4CCCCC4)n3)c2)cc1)c1ccccc1`, the Emax in [17] is 50%; in [15], over 70%; in [16], over 70%. This compound also had a DC50 on Estrogen receptor of 1000 nM.
